Columns and labels:
[1] = tested on: Human immunodeficiency virus 1; test: Antiviral activity against Human immunodeficiency virus 1 H10 harboring Tyr127His, Gly140Glu, Glu149Lys, Asp174Asn and Arg178Lys mutations in nef protein infecting in CEM-SS cells assessed as inhibition of viral Reverse transcriptase by [3H]TTP incorporation assay
[2] = tested on: Human immunodeficiency virus 2; test: Antiviral activity against Human immunodeficiency virus 2 CDC 310342 infected in phytohemagglutininin and interleukin-2-stimulated PBMC assessed as inhibition of viral Reverse transcriptase by [3H]TTP incorporation assay; type: functional, organism-based
CEM-SS = test: Cytotoxicity against human CEM-SS cells by MTS assay; type: functional, cell-based
[3] = tested on: Human immunodeficiency virus 1; test: Antiviral activity against Human immunodeficiency virus 1 A7 harboring Tyr127His mutation in nef protein infecting in CEM-SS cells assessed as inhibition of viral Reverse transcriptase by [3H]TTP incorporation assay
H9 = test: Cytotoxicity against human H9 cells by MTS assay; type: functional, cell-based
PBMC [4] = test: Cytotoxicity against human PBMC assessed as cell viability at 10 uM by MTS assay; type: cell-based
[5] = tested on: Simian immunodeficiency virus; test: Antiviral activity against simian immunodeficiency virus Mac251 infected in phytohemagglutininin and interleukin-2-stimulated PBMC assessed as inhibition of viral Reverse transcriptase by [3H]TTP incorporation assay; type: functional, organism-based
[6] = tested on: Human immunodeficiency virus 1; test: Antiviral activity against Human immunodeficiency virus 1 A12 harboring Tyr127His, Asp174Asn and Arg178Lys mutations in nef protein infecting in CEM-SS cells assessed as inhibition of viral Reverse transcriptase by [3H]TTP incorporation assay
[7] = Cytotoxicity against human AA5 cells by MTS assay; type: cell-based
[8] = tested on: Simian immunodeficiency virus; test: Antiviral activity against simian immunodeficiency virus 69R infected in phytohemagglutininin and interleukin-2-stimulated PBMC assessed as inhibition of viral Reverse transcriptase by [3H]TTP incorporation assay; type: functional, organism-based
[9] = tested on: Human immunodeficiency virus 1; test: Antiviral activity against Human immunodeficiency virus 1 D1 harboring Tyr127His mutation in nef protein infecting in CEM-SS cells assessed as inhibition of viral Reverse transcriptase by [3H]TTP incorporation assay
[10] = tested on: Human immunodeficiency virus 2; test: Antiviral activity against Human immunodeficiency virus 2 CDC 310319 infected in phytohemagglutininin and interleukin-2-stimulated PBMC assessed as inhibition of viral Reverse transcriptase by [3H]TTP incorporation assay; type: functional, organism-based
PBMC [11] = test: Cytotoxicity against human PBMC assessed as cell viability at 1 uM by MTS assay; type: cell-based

Work on Cc1cn([C@H]2C[C@H](N=[N+]=[N-])[C@@H](CO)O2)c(=O)[nH]c1=O [ZIDOVUDINE] yielded an IC50 [1] of 40 nM, an IC50 [2] of 1 nM and an IC50 (CEM-SS) greater than 100 nM. The IC50 [3] was 28 nM, the IC50 (H9) was greater than 100 nM and the Activity (PBMC [4]) was “Non-toxic”. The IC50 [5] was 10 nM, the IC50 [6] was 80 nM and the IC50 [7] was greater than 100 nM. The IC50 [8] was 0.5 nM, the IC50 [9] was 15 nM and the IC50 [10] was 0.2 nM. For the same compound, the Activity (PBMC [11]) was “Non-toxic”.

— ChEMBL document CHEMBL1671682, “Inhibition of human immunodeficiency virus type 1 by triciribine involves the accessory protein nef” (Antimicrob Agents Chemother, 2010)
